We go through one compound from paper PMC7142633, “Impact of B-Ring Substitution and Acylation with Hydroxy Cinnamic Acids on the Inhibition of Porcine α-Amylase by Anthocyanin-3-Glycosides” (Foods, 2020).

A word on the IC50: it is the concentration needed to halve the response being measured.

For assay [1], the target named is T1, α-amylase from porcine pancreas (Sus scrofa, UniProt P00690).
T1 construct: A saline suspension of α-amylase from porcine pancreas; purchased Sigma Aldrich (Steinheim, Germany) Lot #SLBN9170V (catalogue number not given); host or cells: porcine pancreas (tissue-derived)
T1 sequence (P00690 16-511): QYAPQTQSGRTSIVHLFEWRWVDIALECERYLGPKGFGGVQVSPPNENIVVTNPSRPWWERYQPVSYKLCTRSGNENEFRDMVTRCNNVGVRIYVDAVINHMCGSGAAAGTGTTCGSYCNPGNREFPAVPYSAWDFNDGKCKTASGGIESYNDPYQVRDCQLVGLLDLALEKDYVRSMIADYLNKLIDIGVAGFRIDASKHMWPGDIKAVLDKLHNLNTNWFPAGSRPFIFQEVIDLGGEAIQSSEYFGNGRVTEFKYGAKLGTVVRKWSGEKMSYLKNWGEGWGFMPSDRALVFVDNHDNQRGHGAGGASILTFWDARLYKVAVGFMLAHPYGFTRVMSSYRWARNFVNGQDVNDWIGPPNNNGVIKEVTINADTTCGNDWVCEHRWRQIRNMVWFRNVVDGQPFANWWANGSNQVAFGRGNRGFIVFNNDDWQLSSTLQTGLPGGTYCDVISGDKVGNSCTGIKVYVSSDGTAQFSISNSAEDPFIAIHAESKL
In words: Isothermal titration calorimetry, single injection, GalG2CNP conversion. The class given is biochemical. Particulars: 100 µM inhibitor, 0.95 mM substrate, 37 °C. The procedure: To evaluate the inhibitory strength of 100 µM anthocyanin-3-glucosides and black carrot anthocyanins, GalG2CNP conversion to CNP was monitored by the released heat. According to the previous study, ITC measurements were carried out in a single injection experiment set-up on a MICROCALTM PEAQ-ITC calorimeter (S/N MAL1188053, Malvern Panalytical Almelo, Netherlands). Following an equilibration time of 10 min, 1 µL α-amylase (1 µM in 50 mM MES^+ buffer) was added to 0.95 mM of the substrate with or without 100 µM of the phenolic inhibitor in the cell (Vcell = 0.207 mL). The temperature was maintained at 37 °C and the sample was stirred at 750 rpm throughout. The feedback/gain mode was set to high. The resulting heat profile was transformed and the conversion rate was plotted against the substrate concentration [S] by an origin routine template provided by Malvern® for Origin version 7.
On the technique in general: In ITC the heat of successive injections is recorded.

For assay [2], the target named is porcine pancreatic α-amylase. On the set-up: method as in doi:10.1016/j.jff.2015.11.042. Particulars: cited from earlier work.

Turning to `COc1cc(-c2[o+]c3cc(O)cc(O)c3cc2O[C@@H]2O[C@H](CO)[C@@H](O)[C@H](O)[C@H]2O)ccc1O` [Peo-glc, peonidin-3-glucoside], the “inhibitory strength by ITC (thermogram, Michaelis Menten plot)” value in assay [1] is “Mlv-3-glc > Cyd-3-glc > Dpd-3-glc~Peo-3-glc”. Besides, in assay [2], the IC50 is 75 ± 7 µM and the inhibition type entry is listed as “competitive inhibition type”.
